Test results: US11104670B2, “4-pyrimidin-5-ylmethyl-morpholine derivatives and the use thereof as medicament” (Boehringer Ingelheim International GmbH, priority 2018, dated 2021)

Key:
[1] = biological target: NMDA NR1/NR2B receptor (Homo sapiens (Human), UniProt Q13224); assay: NMDA NR1/NR2B FLIPR calcium assay in HEK293 cells; type: cell-based; details: glycine/glutamate-induced calcium, read-out: IC50, in vitro NR2B affinity in the FLIPR assay
Method: A human HEK293 cell line with tetracyclin-inducible expression of NMDA NR1/NR2B receptor was used as a test system for compound efficacy and potency. The cell line was purchased from ChanTest, Catalog #CT6121. Compound activity was determined by measuring the effect of compounds on intracellular calcium concentration induced by glycine/glutamate agonism in a FLIPRtetra system (Molecular Devices).
The cells were obtained as frozen cells in cryo-vials and stored until use at −150° C. Cells were grown in culture medium (DMEM/F12, 10% FBS, 5 μg/mL Blasticidin, 150 μg/mL Zeozin, 500 μg/mL Geneticin). […] For sub-culturing the cells were detached from flasks by Versene. For the assay, cells were detached, washed twice with induction medium (DMEM/F12 without glutamine, 10% FBS, 2 μg/mL Tetracycline, 2 mM Ketamine) and seeded to 384 well pure coat amine plates (Becton Dickinson, 50000 cells per well in 50 μl) 48 h prior to assay in induction medium.
The test compounds were dissolved in 100% DMSO at a concentration of 10 mM and in a first step diluted in DMSO to a concentration of 5 mM, followed by serial dilution steps in 100% DMSO. Dilution factor and number of dilution steps may vary according to needs. Typically 8 different concentrations by 1:5 dilutions were prepared in duplicate, further intermediate dilutions (1:37.5) of the substances were carried out with aqueous assay buffer (137 mM NaCl, 4 mM KCl, 1.8 mM CaCl2), 10 mM HEPES, 10 mM Glucose, pH 7.4) resulting in a compound concentration 3 times above the final test concentration and DMSO at 2.7% resulting in 0.9% final DMSO concentration in the assay.
At the assay day cells were washed 3× with assay buffer (as described above), 10 μL buffer remained in the wells after washing. 10 μL Ca kit loading buffer (AAT Bioquest; prepared from the kit containing the following components: Component A: Fluo-8 NW dissolved in 200 μL DMSO and 20 μl of this solution are mixed with 10 ml buffer prepared out of component B and C, Component B: 10× Pluronic® F127 Plus diluted 1:10 in component C, Component C: HHBS (Hanks with 20 mM Hepes) was added to the cells and the plates were incubated with lid for 60 minutes at room temperature. 20 μl assay buffer containing 60 μM glycine (20 μM final) and 3 μM glutamate (1 μM final) was added to column 1-23, column 24 got assay buffer without glycine/glutamate to serve as negative unstimulated control. Fluorescence (indicating the calcium influx as a result of the NR1/NR2B ion channel activation) was read on the FLIPRtetra device for 60 seconds to monitor the glutamate induced effects. After 2 minutes 20 μL of compound dilution prepared as described above or controls (row 1-22) in assay buffer were carefully added to the wells. […] The average of 2 measurements at 5 minutes and 5 min 10 seconds after compound addition is calculated and further used for IC50 calculations. Each assay microtiter compound dilution plate contained wells (in column 23 or 24) with DMSO controls instead of compound as controls for glycine/glutamate induced fluorescence (high controls) and wells with 1 μM of a reference NR2B NAM as low controls (Compound 22; reference: Layton, Mark E et al, ACS Chemical Neuroscience 2011, 2(7), 352-362).
The output file of the reader contains the well number and measured average fluorescence units. For data evaluation and calculation, the measurement of the low control was set as 0% control and the measurement of the high control was set as 100% control. The IC50 values were calculated using the standard 4 parameter logistic regression formula. Calculation: [y=(a−d)/(1+(x/c)^b)+d], a=low value, d=high value; x=conc M; c=IC50 M; b=slope.

[2] = Metabolic stability in pooled human liver microsomes; type: in vitro ADME; details: pH 7.6, 1 μM compound, 1 mg/mL microsomal protein, 37° C., NADPH, read-out: Half-life - t½ human liver microsomes
Excerpt: Stability in human liver microsomes refers to the susceptibility of compounds to biotransformation in the context of selecting and/or designing drugs with favorable pharmacokinetic properties. The primary site of metabolism for many drugs is the liver. Human liver microsomes contain the cytochrome P450s (CYPs), and thus represent a model system for studying drug metabolism in vitro. Enhanced stability in human liver microsomes is associated with several advantages, including increased bioavailability and adequate half-life, which can enable lower and less frequent dosing of patients. Thus, enhanced stability in human liver microsomes is a favorable characteristic for compounds that are to be used for drugs.
The metabolic degradation of the test compound was assayed at 37° C. with pooled human liver microsomes. The final incubation volume of 60 μl per time point contains TRIS buffer pH 7.6 at room temperature (0.1 M), magnesium chloride (5 mM aqueous solution), microsomal protein (1 mg/mL for human) and the test compound at a final concentration of 1 μM. Following a short preincubation period at 37° C., the reactions were initiated by addition of betanicotinamide adenine dinucleotide phosphate, reduced form (NADPH, 1 mM), and terminated by transferring an aliquot into acetonitril after different time points. After centrifugation (10000 g, 5 min), an aliquot of the supernatant was assayed by HPLC-MS/MS as described above for the MDCK assay P-gp for the amount of parent compound. The half-life was determined by the slope of the semi-logarithmic plot of the concentration-time profile.

Sequence of NMDA NR1/NR2B receptor (Q13224 27-1484, other chains not shown): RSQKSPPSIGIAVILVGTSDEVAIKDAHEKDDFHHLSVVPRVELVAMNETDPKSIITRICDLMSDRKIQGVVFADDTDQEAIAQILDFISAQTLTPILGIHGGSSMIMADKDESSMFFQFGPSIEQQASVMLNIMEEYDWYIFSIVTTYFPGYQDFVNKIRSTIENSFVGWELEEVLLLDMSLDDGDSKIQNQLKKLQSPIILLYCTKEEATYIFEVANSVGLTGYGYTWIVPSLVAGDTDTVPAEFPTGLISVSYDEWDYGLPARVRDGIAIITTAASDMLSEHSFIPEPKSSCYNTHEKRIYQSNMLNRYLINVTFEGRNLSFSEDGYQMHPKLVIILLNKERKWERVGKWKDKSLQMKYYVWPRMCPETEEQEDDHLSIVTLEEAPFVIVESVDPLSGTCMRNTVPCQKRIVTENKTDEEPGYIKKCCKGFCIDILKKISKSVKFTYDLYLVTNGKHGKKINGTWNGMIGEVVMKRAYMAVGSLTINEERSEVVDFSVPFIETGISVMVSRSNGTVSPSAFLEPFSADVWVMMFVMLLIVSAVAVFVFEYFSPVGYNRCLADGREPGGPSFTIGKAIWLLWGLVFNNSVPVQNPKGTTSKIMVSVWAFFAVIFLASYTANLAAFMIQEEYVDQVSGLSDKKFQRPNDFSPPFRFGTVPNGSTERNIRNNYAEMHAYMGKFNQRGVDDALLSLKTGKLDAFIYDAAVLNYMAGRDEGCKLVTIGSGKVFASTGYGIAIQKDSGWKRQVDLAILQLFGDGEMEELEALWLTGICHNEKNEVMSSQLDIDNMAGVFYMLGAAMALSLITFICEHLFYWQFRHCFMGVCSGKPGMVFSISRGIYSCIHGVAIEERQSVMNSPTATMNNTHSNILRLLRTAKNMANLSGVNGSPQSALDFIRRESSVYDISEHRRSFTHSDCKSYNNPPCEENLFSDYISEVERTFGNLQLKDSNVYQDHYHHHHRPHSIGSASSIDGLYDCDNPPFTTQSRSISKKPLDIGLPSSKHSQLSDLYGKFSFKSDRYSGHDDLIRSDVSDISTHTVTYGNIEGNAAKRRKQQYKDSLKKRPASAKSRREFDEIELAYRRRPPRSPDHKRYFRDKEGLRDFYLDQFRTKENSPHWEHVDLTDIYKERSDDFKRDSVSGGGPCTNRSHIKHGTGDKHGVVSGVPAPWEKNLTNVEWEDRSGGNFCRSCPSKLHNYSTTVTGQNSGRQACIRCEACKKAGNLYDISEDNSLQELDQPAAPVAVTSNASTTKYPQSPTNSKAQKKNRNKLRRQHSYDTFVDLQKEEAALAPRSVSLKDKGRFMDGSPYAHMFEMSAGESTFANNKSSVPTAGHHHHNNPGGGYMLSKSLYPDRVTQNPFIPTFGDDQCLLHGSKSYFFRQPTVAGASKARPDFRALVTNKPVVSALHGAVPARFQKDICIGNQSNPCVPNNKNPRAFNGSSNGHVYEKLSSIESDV

Row | SMILES | IC50 [1] [nM] | half-life at 1 µM [2] [min]
1 | CNC(=O)[C@@H]1CN(Cc2cnc(Oc3ccccc3Cl)nc2)CCO1 [Example 26] | 550 | > 130
2 | CNC(=O)[C@@H]1CN(Cc2cnc(Oc3ccc(F)cc3C)nc2)CCO1 [Example 21] | 702 | > 130
3 | CNC(=O)[C@@H]1CN(Cc2cnc(Oc3ccc(F)cc3)nc2)CCO1 [Example 32] | 547 | > 130
4 | CNC(=O)[C@@H]1CN(Cc2cnc(Oc3ccccc3F)nc2)CCO1 [Example 27] | 350 | > 130
5 | CNC(=O)[C@@H]1CN(Cc2cnc(Oc3ccc(Cl)cc3)nc2)CCO1 [Example 25] | 216 | > 130
6 | CNC(=O)[C@@H]1CN(Cc2cnc(Oc3ccc(C)cc3F)nc2)CCO1 [Example 20] | 133 | > 130
7 | CNC(=O)[C@@H]1CN(Cc2cnc(Oc3ccc(F)cc3F)nc2)CCO1 [Example 23] | 143 | > 130
8 | CNC(=O)[C@@H]1CN(Cc2cnc(Oc3ccc(C)cc3C)nc2)CCO1 [Example 22] | 1110 | > 130
9 | CNC(=O)[C@@H]1CN(Cc2cnc(Oc3ccc(Cl)cc3F)nc2)CCO1 [Example 24] | 98 | > 130
10 | CNC(=O)[C@@H]1CN(Cc2cnc(Oc3ccc(C)cc3)nc2)CCO1 [Example 28] | 500 | > 130
